By LD50 is commonly meant the dose at which mortality reaches 50%.

Data set [1] in a line: Toxicity in mouse assessed as overt effects. The class given is organism-based. As to conditions: in vivo.
Data set [2] relates to Rattus norvegicus. The experiment in a line: Antiinflammatory activity in Long Evans rat assessed as reduction of carrageenan-induced pedal edema at 50 mg/kg, po administered 1 hr prior to carrageenan challenge measured after 3 hrs relative to control. Type of data set: functional. Also noted: scale not given: the % may be the effect or the level left.
In data set [3] the test system is Rattus norvegicus. The experiment in a line: Antiinflammatory activity in Long Evans rat assessed as reduction of carrageenan-induced pedal edema at 40 mg/kg, po administered 1 hr prior to carrageenan challenge measured after 3 hrs relative to control. The class given is functional. Also noted: scale not given: the % may be the effect or the level left. (In general: The carrageenan paw model is a standard test of acute inflammation.)

In data set [4] the test system is Rattus norvegicus. The experiment in a line: Antiinflammatory activity in Long Evans rat assessed as reduction of carrageenan-induced pedal edema at 15 mg/kg, po administered 1 hr prior to carrageenan challenge measured after 3 hrs relative to control. The class given is functional. Also noted: scale not given: the % may be the effect or the level left.
Data set [5] concerns Rattus norvegicus. The experiment in a line: Antiinflammatory activity in Long Evans rat assessed as reduction of carrageenan-induced pedal edema at 25 mg/kg, po administered 1 hr prior to carrageenan challenge measured after 3 hrs relative to control. The class given is functional. Also on record: scale not given: the % may be the effect or the level left.
Data set [6] deals with Rattus norvegicus. The experiment in a line: Antiinflammatory activity in Long Evans rat assessed as reduction of carrageenan-induced pedal edema at 20 mg/kg, po administered 1 hr prior to carrageenan challenge measured after 3 hrs relative to control. The class given is functional. Also on record: scale not given: the % may be the effect or the level left.
Data set [7] relates to Rattus norvegicus. The experiment in a line: Antiinflammatory activity in Long Evans rat assessed as reduction of carrageenan-induced pedal edema at 100 mg/kg, po administered 1 hr prior to carrageenan challenge measured after 3 hrs relative to control. Type of data set: functional. Also noted: scale not given: the % may be the effect or the level left.

Turning to `N#Cc1cc(C#N)c(F)cc1F`, the LD50 in data set [1] was 56 mg/kg. Further, in data set [2], the Activity is 59%.
For `CC(C)CCC(=O)Oc1c(Cl)c(Cl)c(C#N)c(Cl)c1C#N` the same measures were 56 mg/kg and 0%.
As to `N#Cc1c(Cl)c(C#N)c(Nc2cccc(Cl)c2)c(C#N)c1Cl`, in data set [1], the LD50 was 178 mg/kg. In addition, in data set [3], the Activity is 0%.
On to `N#Cc1c(Cl)c(C#N)c(Nc2ccccc2O)c(C#N)c1Cl`, for which the Activity in data set [4] was found to be 17%. The LD50 in data set [1] is 24 mg/kg.
`Cc1c(Cl)cccc1Nc1c(C#N)c(Cl)c(C#N)c(Cl)c1C#N`: the Activity in data set [5] stood at 8%. The median lethal dose (LD50) in data set [1] turned out to be 42 mg/kg.
As to `N#Cc1c(Cl)c(C#N)c(Nc2cccc(F)c2)c(C#N)c1Cl`, the LD50 in data set [1] was found to be 56 mg/kg. For the same compound, the Activity in data set [3] stood at 0%.
For `N#Cc1c(Cl)c(C#N)c(Nc2ccc(F)cc2F)c(C#N)c1Cl` the same measures were 56 mg/kg and 12%.
As for `Cc1cccc(Nc2c(C#N)c(Cl)c(C#N)c(Cl)c2C#N)c1C`, the median lethal dose (LD50) in data set [1] was 75 mg/kg. Besides, in data set [2], the Activity came out at 22%.
With `Cc1ccc(Nc2c(C#N)c(Cl)c(C#N)c(Cl)c2C#N)c(C)c1`, the LD50 in data set [1] stood at 56 mg/kg. Also, the Activity in data set [3] amounted to 13%.
Regarding `N#Cc1c(Cl)c(C#N)c(Cl)c(C#N)c1Cl`, the LD50 in data set [1] was 24 mg/kg. Besides, in data set [6], the Activity amounted to 0%.
`Cc1c(C#N)c(C)c(C#N)c(C)c1C#N`: in data set [1], the LD50 is 40 mg/kg. The Activity in data set [2] was found to be 57%.
Regarding `N#CCCS(=O)(=O)c1c(Cl)c(Cl)c(C#N)c(Cl)c1Cl`, the median lethal dose (LD50) in data set [1] stood at 56 mg/kg. Besides, the Activity in data set [3] is given as 5%.
In the same order, the values of `CNc1c(F)c(C#N)c(F)c(F)c1C#N` are 56 mg/kg and 17%.
For `N#Cc1c(F)c(F)c(C#N)c(F)c1F`, the median lethal dose (LD50) in data set [1] was found to be 56 mg/kg. In addition, the Activity in data set [2] came out at 54%.
Regarding `N#Cc1c(F)c(F)c(C#N)c(Cl)c1F`, in data set [1], the 50% lethal dose (LD50) came out at 40 mg/kg. In data set [3], the Activity came out at 86%.
As for `CCCCC1C(=O)N(c2ccccc2)N(c2ccccc2)C1=O` [PHENYLBUTAZONE], the Activity in data set [7] is recorded as 43.8%. The LD50 in data set [1] was more than 300 mg/kg.
